# Read-outs that look alike come from different tables or passages of the source.
# Legend:
# BTK WT = biological target: T1, BTK WT (Homo sapiens, UniProt Q06187); assay: Lantha screening kinase reaction experiment (BTK WT inhibition); format: biochemical
# T1 construct: purchased Invitrogen PV3363
# Protocol: The compound was predissolved in 100% DMSO. 10 mM drug stock solution was obtained by dissolution at room temperature and then serially diluted with 8 vol % DMSO solution to a final concentration of 10-0.005 μM. 2.5 μl of a solution of substance to be tested and 2.5 μl of kinase (Invitrogen PV3363) diluted with the reaction buffer were added into each well of 384-well plate (Corning 3676), and then the mixture of Fluososcei-PolyGT (Invitrogen PV3610) substrate and ATP (Invitrogen PV3227) diluted with 5 μl of the reaction buffer were added to initiate the reaction. Among the wells, the kinase in the blank well was replaced with a reaction buffer and the kinase well (Enzyme) was not added with any drug. After shaking at 25° C. for 60 minutes in the dark, 10 μl of Detection Solution (mixture of Invitrogen PV3528 and EDTA, which was diluted with TR-FRET dilution buffer, the working concentration of EDTA was 5 mM, the working concentration of Lanthascreening Tb PY20 antibody was 0.2 nM) was added and shaken at room temperature for 30 minutes. The plates were read on a VictorX5 fluorescent plate reader (PerkinElmer) and the light absorption at an excitation wavelength of 340 nm and emission wavelengths of 500 nm and 520 nm was measured. […]
# 2. […] The half-inhibitory concentration IC50 was calculated by fitting with XLFIT 5.0 software (IDBS, UK).
# βBTK Y223 = biological target: T2, βBTK Y223 (Homo sapiens, UniProt Q06187); assay: Intracellular βBTK Y223 phosphorylation HTRF detection in Ramos cells; format: cell-based; conditions: sodium pervanadate
# T2 construct: endogenous in cells; host or cells: Ramos cells
# Protocol: The compound was predissolved in 100% DMSO. 10 mM drug stock solution was obtained by dissolution at room temperature and then serially diluted with 5 vol % DMSO solution to a final concentration of 3-0.0014 μM. Ramos cells were seeded into 96-well plates at a density of 4×10^5/well with 45 μl of 1640 medium containing 10% (V/V) FBS per well, and 5 μl of diluted solution of substance to be tested was added to each well, which was incubated for 1 hour at 37° C., 5% (V/V) CO2. 10 μl of sodium pervanadate dilution (diluted with 1640 without serum) was added, and to the negative control wells was added 10 μl of serum-free medium, which was incubated at 25° C. for 30 minutes on a shaker. 20 μl of lysate (4× lysate: blocked mother liquor is 25:1) was added to each well and incubated for 30 minutes at 25° C. on a shaker. It was shaken on an oscillator at 800 rpm for 1 minute. […] The plates were read on a VictorX5 fluorescent plate reader (PerkinElmer) and the light absorption at an excitation wavelength of 317 nm and emission wavelengths of 500 nm and 520 nm was measured (referring to the specification of 63ADK017PEH, Cisbio). The half-inhibitory concentration IC50 was calculated by fitting with XLFIT 5.0 software (IDBS, UK).
# wild-type EGFR kinase = biological target: T3, wild-type EGFR kinase (Homo sapiens, UniProt P00533); assay: Wild type EGFR kinase inhibition test (z-lyte); format: biochemical
# T3 construct: purchased Invitrogen PV3872
# Protocol: All the following reagents used in z-lyte test are commercially available from Invitrogen.
# The inhibitory effects of compounds to be tested on wild-type EGFR kinase (Invitrogen, PV3872) were measured by z-lyte methods.
# The working concentration of each component in 10 μl wild-type EGFR kinase reaction system was: 10 μM ATP, 0.8 ng/μl wild-type EGFR kinase (Invitrogen, PV3872), 2 μM Tyr04 substrate (Invitrogen, PV3193). After the compounds to be tested were added, the final concentration of DMSO was 2%.
# 10 mM drug stock solutions dissolved at room temperature were gradiently diluted with 4% DMSO in water to a final concentrations of 10-0.005 μM. To each well were added 2.5 μl of a solution of the compounds to be tested and 5 μl of a mixture of wild-type EGFR kinase and Tyr04 substrate diluted with a reaction buffer, and then 2.5 μl of ATP was added to initiate the reaction. […] The plates were read in a VictorX5 fluorescent microplate reader (PerkinElmer) and the light absorbance at an excitation wavelength of 405 nm and emission wavelengths of 450 nm and 520 nm was measured (For example, C3520 nm represents the reading of C3 well at 520 nm). […]
# The half-inhibitory concentration IC50 was calculated by fitting with XLFIT 5.0 software (IDBS, UK).
# [1] = Stability experiment (40° C./75% RH accelerated stability box and 60° C. oven); format: physicochemical
# Protocol: The compound of formula X (amorphous) and crystal form A are placed in a 40° C./75% RH accelerated stability box and a 60° C. oven respectively, and take samples at fixed time points.
# Solubility experiment = format: physicochemical
# Protocol: About 5 mg of the compound of formula X (amorphous), crystal form I and crystal form A were weighed into each centrifuge tube, and 0.5 ml or 1 ml of corresponding medium was added, and ultrasonic vibration is conducted to make it dissolved as much as possible to form a supersaturated solution, centrifuged and the supernatant (if the solubility is high, dilute it) was taken into the liquid chromatography to calculate the solubility, 5.69 mg of the compound of formula X (amorphous) can be completely dissolved in 0.5 ml of 0.1M HCl medium, 4.24 mg of crystal form I can be completely dissolved in 1 ml of 0.1M HCl medium, the experimental results are shown in table 12: […]
# [2] = Dynamic Vapor Sorption (DVS); format: physicochemical
# Protocol: The Dynamic Vapor Sorption (DVS) curve: acquired on the DVS Intrinsic of Surface Measurement Systems. The relative humidity at 25° C. is corrected with the deliquescence points of LiCl, Mg (NO3)2 and KCl.
# [3] = Stability experiment of crystal form I (60° C. oven); format: physicochemical
# Protocol: The sample is weighed and placed in an oven at 60° C., and taken for test at a fixed time point.
# [4] = Thermogravimetric analysis (TGA); format: physicochemical; conditions: below 250° C.
# From the text: TGA and DSC pattern: TGA and DSC pattern were collected on TA Q500/5000 thermogravimetric analyzer and TA Q200/2000 differential scanning calorimeter respectively.
# [5] = Stability experiment of the crystal forms of the free base (mixed forms shaken under suspension in solvents, XRD); format: physicochemical; conditions: 50° C. 1 day, room temperature 1 day and 7 days
# Protocol: 80 mg of the compound of formula X in amorphous form, crystal form I, crystal form II and crystal form III were weighed respectively, and mixed them in a sample bottle; 20 mg of the mixture was weighed into each centrifuge tube, a total of 15 samples (5 experimental solvents, 3 experimental conditions); Experimental solvents: acetone, acetonitrile, ethyl acetate, isopropanol and ethanol; Experimental conditions: 1 day and 7 days at room temperature, 1 day at 50° C. The experimental conditions and results are as follows: […]
# T3 sequence (P00533 668-1210 limits assumed): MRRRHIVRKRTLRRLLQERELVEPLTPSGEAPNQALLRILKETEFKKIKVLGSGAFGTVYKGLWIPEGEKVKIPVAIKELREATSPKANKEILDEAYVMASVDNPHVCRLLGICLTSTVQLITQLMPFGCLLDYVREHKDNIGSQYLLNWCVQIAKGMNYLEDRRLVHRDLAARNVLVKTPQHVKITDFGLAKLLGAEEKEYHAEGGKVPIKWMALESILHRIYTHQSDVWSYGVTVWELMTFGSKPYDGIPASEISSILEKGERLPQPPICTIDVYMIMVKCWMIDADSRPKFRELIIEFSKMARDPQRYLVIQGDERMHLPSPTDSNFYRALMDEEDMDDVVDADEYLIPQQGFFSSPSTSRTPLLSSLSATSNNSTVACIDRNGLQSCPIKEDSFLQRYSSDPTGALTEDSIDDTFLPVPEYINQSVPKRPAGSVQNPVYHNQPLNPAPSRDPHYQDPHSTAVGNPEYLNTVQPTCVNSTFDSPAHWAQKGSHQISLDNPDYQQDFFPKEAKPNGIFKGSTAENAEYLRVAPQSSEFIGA
# T1 sequence (Q06187 whole entry): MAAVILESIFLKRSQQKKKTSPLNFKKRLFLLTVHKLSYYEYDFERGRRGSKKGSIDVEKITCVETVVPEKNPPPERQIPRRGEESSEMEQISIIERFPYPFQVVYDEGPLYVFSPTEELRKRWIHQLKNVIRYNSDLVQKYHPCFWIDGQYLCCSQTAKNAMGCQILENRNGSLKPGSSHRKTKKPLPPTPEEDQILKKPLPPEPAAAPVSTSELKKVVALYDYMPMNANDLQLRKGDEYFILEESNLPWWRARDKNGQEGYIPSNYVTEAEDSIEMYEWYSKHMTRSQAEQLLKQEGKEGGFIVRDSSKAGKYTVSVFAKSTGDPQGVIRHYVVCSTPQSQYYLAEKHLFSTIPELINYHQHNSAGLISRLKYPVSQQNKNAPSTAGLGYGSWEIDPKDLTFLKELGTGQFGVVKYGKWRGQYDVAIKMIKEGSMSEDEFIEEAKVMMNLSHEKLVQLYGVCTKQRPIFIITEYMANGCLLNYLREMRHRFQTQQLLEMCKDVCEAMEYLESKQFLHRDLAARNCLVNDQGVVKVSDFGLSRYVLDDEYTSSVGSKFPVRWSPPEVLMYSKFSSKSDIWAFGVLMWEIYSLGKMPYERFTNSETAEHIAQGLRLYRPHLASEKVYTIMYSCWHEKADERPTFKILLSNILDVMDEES
# T2 sequence (Q06187 whole entry): as above
compound,measurement,setting,value
"C=CC(=O)N1CCC[C@H](Nc2nc(Nc3ccc(N4CCOCC4)cc3F)c3c(c2F)CNC3=O)C1 [(S)-6-((1-acryloylpiperidin-3-yl)amino)-7-fluoro-4-((2-fluoro-4-morpholinophenyl)amino)-1,2-dihydrogen-3H-pyrrolo[3,4-c]pyridin-3-one, reference compound]",IC50,BTK WT,48 nM
"C=CC(=O)N1CCC[C@@H](Nc2nc(Nc3ccc(N4CCOCC4)cc3F)c3c(c2F)CNC3=O)C1 [Compound of formula X, (R)-6-((1-acryloylpiperidin-3-yl)amino)-7-fluoro-4-((2-fluoro-4-morpholinophenyl)amino)-1,2-dihydrogen-3H-pyrrolo[3,4-c]pyridin-3-one]",IC50,βBTK Y223,3 nM
same,IC50,BTK WT,2.4 nM
same,IC50,"wild-type EGFR kinase; 10 μM ATP, read-out: EGFR WT IC50",932 nM
same,selectivity BTK WT kinase over wild-type EGFR kinase (in words),wild-type EGFR kinase; comparison of tables 14 and 16,selective inhibitory activities against BTK WT kinase
same,Content %,[1]; 0 day,100.00%
same,Total Impurity %,[1]; 0 day,0%
same,chemical stability (conclusion in words),"[1]; 40° C./75% RH and 60° C., 8 days and 14 days",stable
same,Content %,"[1]; 40° C./75% RH, 8 days",100.62%
same,Total Impurity %,"[1]; 40° C./75% RH, 8 days",0%
same,Content %,"[1]; 40° C./75% RH, 14 days",100.70%
same,Total Impurity %,"[1]; 40° C./75% RH, 14 days",0%
same,Content %,"[1]; 60° C., 8 days",100.82%
same,Total Impurity %,"[1]; 60° C., 8 days",0%
same,Content %,"[1]; 60° C., 14 days",100.81%
same,Total Impurity %,"[1]; 60° C., 14 days",0%
same,Solubility,"Solubility experiment; 0.1M HCl medium, listed as Amorphous",≥11380 µg/mL
same,Solubility,"Solubility experiment; H2O, listed as Amorphous",11 µg/mL
same,Solubility,"Solubility experiment; pH 4.5 medium, listed as Amorphous",9 µg/mL
same,Solubility,"Solubility experiment; pH 6.8 medium, listed as Amorphous",7 µg/mL
"C=CC(=O)N1CCC[C@@H](Nc2nc(Nc3ccc(N4CCOCC4)cc3F)c3c(c2F)CNC3=O)C1 [crystal form I, (R)-6-((1-acryloylpiperidin-3-yl)amino)-7-fluoro-4-((2-fluoro-4-morpholinophenyl)amino)-1,2-dihydrogen-3H-pyrrolo[3,4-c]pyridin-3-one]",weight gain of moisture absorption,"[2]; 90% RH, 25° C.",0.22%
same,hygroscopicity (in words),[2]; from DVS at 90% RH,slightly hygroscopic
same,Content %,[3]; 0 day,100.11%
same,Relative substance %,[3]; 0 day,none
same,Content %,"[3]; 60° C., 1 week",99.91%
same,Relative substance %,"[3]; 60° C., 1 week",none
same,chemical stability (conclusion in words),"[3]; 60° C., 1 week and 2 weeks",stable
same,crystal form stability by XRD,"[3]; 60° C., 1 week and 2 weeks",has not changed
same,Content %,"[3]; 60° C., 2 weeks",99.76%
same,Relative substance %,"[3]; 60° C., 2 weeks",none
same,TGA weight loss,[4],basically no weight loss
same,Solubility,Solubility experiment; 0.1M HCl medium,≥4240 µg/mL
same,Solubility,"Solubility experiment; pH 4.5 medium, pH 4.5, aqueous buffer, thermodynamic from solid, pH 4.5 medium, read-out: Solubility",8 µg/mL
same,Solubility,"Solubility experiment; pH 6.8 medium, pH 6.8, aqueous buffer, thermodynamic from solid, pH 6.8 medium, read-out: Solubility",6 µg/mL
same,Solubility,"Solubility experiment; water, thermodynamic from solid, H2O, read-out: Solubility",7 µg/mL
same,"form obtained from the mixture of amorphous and crystal forms I, II, III (XRD)",[5]; acetone,stable crystal form
same,"form obtained from the mixture of amorphous and crystal forms I, II, III (XRD)",[5]; acetonitrile,stable crystal form
same,"form obtained from the mixture of amorphous and crystal forms I, II, III (XRD)",[5]; ethyl acetate,stable crystal form
same,"form obtained from the mixture of amorphous and crystal forms I, II, III (XRD)",[5]; isopropanol,stable crystal form
"C=CC(=O)N1CCC[C@@H](Nc2nc(Nc3ccc(N4CCOCC4)cc3F)c3c(c2F)CNC3=O)C1 [crystal form III, (R)-6-((1-acryloylpiperidin-3-yl)amino)-7-fluoro-4-((2-fluoro-4-morpholinophenyl)amino)-1,2-dihydrogen-3H-pyrrolo[3,4-c]pyridin-3-one]","form obtained from the mixture of amorphous and crystal forms I, II, III (XRD)",[5]; ethanol,stable crystal form
